Test [1] has as its system harmful plants such as Alopecurus myosuroides, Echinochloa crus galli, Setaria viridis and Veronica persica. The test can be described thus: Pre-emergence herbicidal effect (greenhouse pot test, visual scoring). The test is classed as in vivo. Particulars: pre-emergence method, application rate of 0.32 kg of active substance per hectare, scored visually after about 3 weeks. The text has this:
1. Pre-emergence Herbicidal Effect and Crop Plant Compatibility
Seeds of monocotyledonous or dicotyledonous weeds or crop plants are placed in sandy loam soil in wood-fiber pots and covered with soil. The compounds (I) according to the invention, formulated in the form of wettable powders (WP), are then applied to the surface of the soil cover in the form of an aqueous suspension or emulsion at a water application rate of 600 I/ha (converted), with addition of 0.2% wetting agent.
Following the treatment, the pots are placed in the greenhouse and kept under good growth conditions for the test plants. After about 3 weeks, the activity of the preparations is scored visually in comparison to untreated controls (herbicidal activity in percent (%): 100% activity=the plants have died, 0% activity=like control plants).

Test [2] concerns harmful plants such as Avena fatua, Echinochloa crus galli, Lolium multiflorum, Setaria viridis, Veronica persica, Viola tricolor and Alopecurus myosuroides. The test can be described thus: Post-emergence herbicidal effect (greenhouse pot test, visual scoring). Particulars: post-emergence method, application rate of 0.32 kg or less of active substance per hectare, scored visually after about 3 weeks. The test is classed as in vivo. As for the experimental part: 2. Post-emergence Herbicidal Effect and Crop Plant Compatibility
Seeds of monocotyledonous and dicotyledonous weeds and crop plants are placed in sandy loam soil in wood-fiber pots, covered with soil, and cultivated in a greenhouse under good growth conditions. 2 to 3 weeks after sowing, the test plants are treated at the one-leaf stage. The compounds (I) according to the invention, formulated as wettable powders (WP), are then sprayed onto the green parts of the plants as an aqueous suspension or emulsion at a water application rate of 600 I/ha (converted), with addition of 0.2% wetting agent. The test plants are allowed to stand in a greenhouse for about 3 weeks under optimum growth conditions, and the effect of the preparations is then scored visually by comparison with untreated controls (herbicidal activity in percent (%): 100% activity=the plants have died, 0% activity=like control plants).

For 39 compounds, herbicidal activity results are on record in US8298994B2, “Substituted 1-(diazinyl)pyrazol-4-ylacetic acids, processes for their preparation and their use as herbicides and plant growth regulators” (Bayer Cropscience AG, priority 2008, dated 2012).

For `CCOC(=O)Cc1c(C)nn(-c2cncnc2)c1-c1ccc(Cl)cn1` [Compound 3-25], the herbicidal activity entry in test [1] and in test [2] was “good herbicidal activity” in each case. For `COC(=O)Cc1c(C)nn(-c2cncnc2)c1-c1cc2ccccc2cn1` [Compound 2-241], the herbicidal activity entry in test [1] and in test [2] was “good herbicidal activity” each time. `CC#CCOC(=O)Cc1c(C)nn(-c2cncnc2)c1-c1ccc(Cl)cc1` [Compound 3-161]: the herbicidal activity entry in test [1] and in test [2] was “good herbicidal activity” each time. Turning to `CCOC(=O)Cc1c(C)nn(-c2cncnc2)c1-c1ccc(Cl)cc1` [Compound 3-4], the herbicidal activity entry in test [1] and in test [2] was “good herbicidal activity” in each case. As for `Cc1cc(C)nc(-c2c(CC(=O)O)c(C)nn2-c2cncnc2)c1` [Compound 1-210], the herbicidal activity entry in test [1] and in test [2] was “good herbicidal activity” in each case. As for `Cc1nn(-c2cncnc2)c(-c2ccc(Br)cn2)c1CC(=O)OCC1CC1` [Compound 3-136], in test [2], the herbicidal activity entry is “good herbicidal activity”. Take `COC(=O)Cc1c(C)nn(-c2cncnc2)c1-c1cc(C)ccn1` [Compound 2-148]: the herbicidal activity entry in test [1] and in test [2] was “good herbicidal activity” each time. On to `COC(=O)Cc1c(C)nn(-c2cncnc2)c1-c1cnc(C)cn1` [Compound 2-215], for which the herbicidal activity result in test [1] and in test [2] was “good herbicidal activity” in each case.

For `COC(=O)Cc1c(C)nn(-c2cncnc2)c1-c1nc2ccccc2s1` [Compound 2-217], the herbicidal activity result in test [1] and in test [2] was “good herbicidal activity” each time. As to `COC(=O)Cc1c(C)nn(-c2cncnc2)c1-c1cc(OC)ccn1` [Compound 2-155], the herbicidal activity result in test [1] and in test [2] was “good herbicidal activity” throughout. Take `COC(=O)Cc1c(C)nn(-c2cncnc2)c1-c1ccccn1` [Compound 2-116, Methyl[3-methyl-5-(pyridin-2-yl)-1-(pyrimidin-5-yl)-1H-pyrazol-4-yl]acetate]: the herbicidal activity result in test [1] and in test [2] was “good herbicidal activity” in each case.

Turning to `COC(=O)Cc1c(C)nn(-c2cncnc2)c1-c1ccc(Br)cn1` [Compound 2-120], the herbicidal activity entry in test [1] and in test [2] was “good herbicidal activity” throughout. Take `COC(=O)Cc1c(C)nn(-c2cncnc2)c1-c1ccc(Cl)cn1` [Compound 2-117]: the herbicidal activity entry in test [1] and in test [2] was “good herbicidal activity” each time.

In the case of `C#CCOC(=O)Cc1c(C)nn(-c2cncnc2)c1-c1ccc(Cl)cn1` [Compound 3-112], the herbicidal activity entry in test [1] and in test [2] was “good herbicidal activity” each time. As for `COc1ccnc(-c2c(CC(=O)O)c(C)nn2-c2cncnc2)c1` [Compound 1-154], the herbicidal activity entry in test [1] and in test [2] was “good herbicidal activity” in each case. For `COC(=O)Cc1c(C)nn(-c2cncnc2)c1-c1ncccn1` [Compound 2-224], the herbicidal activity entry in test [1] and in test [2] was “good herbicidal activity” in each case. Regarding `COC(=O)Cc1c(C)nn(-c2cncnc2)c1-c1ccc(Br)cc1` [Compound 2-240], the herbicidal activity result in test [1] and in test [2] was “good herbicidal activity” in each case. Turning to `COC(=O)Cc1c(C)nn(-c2cncnc2)c1-c1ccc(Cl)cc1` [Compound 2-28], the herbicidal activity entry in test [1] and in test [2] was “good herbicidal activity” in each case. For `COC(=O)Cc1c(C)nn(-c2cncnc2)c1-c1ccc(F)cc1` [Compound 2-132], the herbicidal activity result in test [1] and in test [2] was “good herbicidal activity” throughout. As to `Cc1nn(-c2cncnc2)c(-c2ccc(Cl)cc2)c1CC(=O)OCC1CC1` [Compound 3-121], the herbicidal activity result in test [1] and in test [2] was “good herbicidal activity” throughout. Turning to `Cc1cnc(-c2c(CC(=O)O)c(C)nn2-c2cncnc2)cn1` [Compound 1-214], the herbicidal activity entry in test [1] and in test [2] was “good herbicidal activity” in each case.

As to `Cc1nn(-c2cncnc2)c(-c2ccc(Br)cn2)c1CC(=O)O` [Compound 1-119], the herbicidal activity entry in test [1] and in test [2] was “good herbicidal activity” each time.

For the compound `Cc1nn(-c2cncnc2)c(-c2ccc(Cl)cc2)c1CC(=O)O` [Compound 1-28], the herbicidal activity result in test [1] and in test [2] was “good herbicidal activity” throughout. In the case of `Cc1nn(-c2cncnc2)c(-c2ccc(Cl)cn2)c1CC(=O)OCC1CC1` [Compound 3-135], the herbicidal activity result in test [1] and in test [2] was “good herbicidal activity” throughout. In the case of `Cc1nn(-c2cncnc2)c(-c2cc3ccccc3cn2)c1CC(=O)O` [Compound 1-236], the herbicidal activity result in test [1] and in test [2] was “good herbicidal activity” throughout.

Take `CCOC(=O)Cc1c(C)nn(-c2cncnc2)c1-c1ccc(Br)cn1` [Compound 3-26]: the herbicidal activity entry in test [1] and in test [2] was “good herbicidal activity” throughout. For the compound `COC(=O)Cc1c(C)nn(-c2cncnc2)c1-c1ccccc1` [Compound 2-2], the herbicidal activity entry in test [1] and in test [2] was “good herbicidal activity” each time. `COC(=O)Cc1c(C)nn(-c2cncnc2)c1-c1ccc(Cl)s1` [Compound 2-65]: the herbicidal activity result in test [1] and in test [2] was “good herbicidal activity” in each case.

As for `COC(=O)Cc1c(C)nn(-c2cncnc2)c1-c1ccc([N+](=O)[O-])cc1` [Compound 2-243], the herbicidal activity result in test [1] and in test [2] was “good herbicidal activity” each time. Turning to `COC(=O)Cc1c(C)nn(-c2cncnc2)c1-c1ccc(C)cn1` [Compound 2-124], the herbicidal activity entry in test [1] and in test [2] was “good herbicidal activity” in each case. As for `C=CCc1ccc(-c2c(CC(=O)OC)c(C)nn2-c2cncnc2)nc1` [Compound 2-249], the herbicidal activity entry in test [1] and in test [2] was “good herbicidal activity” each time.

As to `CC#CCOC(=O)Cc1c(C)nn(-c2cncnc2)c1-c1ccc(Br)cn1` [Compound 3-176], the herbicidal activity entry in test [1] and in test [2] was “good herbicidal activity” each time. With `COC(=O)Cc1c(C)nn(-c2cncnc2)c1-c1cc(C)cc(C)c1` [Compound 2-47], the herbicidal activity entry in test [1] and in test [2] was “good herbicidal activity” throughout.

Regarding `COC(=O)Cc1c(C)nn(-c2cncnc2)c1-c1ccc(C)cc1` [Compound 2-16], the herbicidal activity entry in test [1] and in test [2] was “good herbicidal activity” in each case. Take `COC(=O)Cc1c(C)nn(-c2cncnc2)c1-c1cc(C)cs1` [Compound 2-64]: the herbicidal activity entry in test [1] and in test [2] was “good herbicidal activity” throughout. For the compound `Cc1nn(-c2cncnc2)c(-c2ccc(Cl)cn2)c1CC(=O)OCC(F)F` [Compound 3-353], the herbicidal activity entry in test [1] and in test [2] was “good herbicidal activity” throughout. As for `COC(=O)Cc1c(C)nn(-c2cncnc2)c1-c1ccc(Cl)c(C)c1` [Compound 2-135], the herbicidal activity entry in test [1] and in test [2] was “good herbicidal activity” each time. For `CCOC(=O)Cc1c(C)nn(-c2cncnc2)c1-c1cc(C)ccn1` [Compound 3-36], in test [1], the herbicidal activity entry is recorded as “good herbicidal activity”. As to `Cc1nn(-c2cncnc2)c(-c2ccc(Cl)cn2)c1CC(=O)O` [Compound 1-116], the herbicidal activity entry in test [1] and in test [2] was “good herbicidal activity” each time.
